Assay [1] has as its target nucleotide binding site of three different antibodies. In words: Sandwich ELISA, summary over three antibodies. The procedure:
(§1) FIG. 2B illustrates a sandwich ELISA, in accordance with various embodiments;
(§2) HRP-streptavidin was used to bind the biotin, and a fluorescent substrate was used to quantify the amount of indole-3-butyric acid that was present on the surface.
Thus, the monovalent Kd values for the indole binding to the nucleotide binding site of three different antibodies ranged between 1-7 μM, showing a 7- to 50-fold enhancement in binding affinity over adenine.

Assay [2] deals with nucleotide binding site of mouse anti-FITC antibody. Kind of assay: Sandwich ELISA binding of biotin-linked indole-3-butyric acid to antigen-captured antibody. The settings on record: fit of normalized fluorescent intensity, read-out: Kd (binding affinity).
Description: as §1, §2
For orientation: ELISA stands for enzyme-linked immunosorbent assay.

Assay [3] addresses nucleotide binding site of chimeric human/mouse Rituximab. The assay is described as above. The settings on record: fit of normalized fluorescent intensity, read-out: Kd (binding affinity).
Description: as §1, §2

Assay [4] concerns the target nucleotide binding site of rat anti-DNP antibody. Described as above. To be noted: fit of normalized fluorescent intensity, read-out: Kd (binding affinity).
Description: as §1, §2

One may read the Kd as a measure of binding affinity in units of concentration.

For `O=C(O)CCCc1c[nH]c2ccccc12` [indole-3-butyric acid], the dissociation constant Kd in assay [1] (range over three different antibodies, read-out: monovalent Kd values) is 1 to 7 µM; in assay [2], 6.41 µM; in assay [3] it was 1700 nM; in assay [4], 1270 nM. Also, the “enhancement in binding affinity over adenine” value in assay [1] (relative to adenine) is 7- to 50 fold.

(Values after US9598460B2 (UNIVERSITY OF NOTRE DAME DU LAC, priority 2011, dated 2017).)
